# Tests used:
# Format in all cases: cell-based
# [1] = tested on: Ba/F3 cells expressing L858R/T790M (EGFR-LT); experiment: Growth inhibition (GI50) of Ba/F3 cells expressing L858R/T790M (EGFR-LT), Celltiter glo
# In short: (§1)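 Viable-cell luminescence (CellTiter-Glo) after 72 h compound exposure at 37 °C, 5% CO2 gave GI50 (μM, 50% growth inhibition). Compounds were 4-fold serial dilutions, 10 points, from a 2 mM stock, 0.5% DMSO, added 4 h after plating EGFR-variant Ba/F3 cells at 100,000 cells/ml.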
# [2] = tested on: parental Ba/F3 cell line; experiment: Growth inhibition (GI50) of the parental Ba/F3 cell line (not introduced with EGFR variants), Celltiter glo; conditions: parental Ba/F3 cells
# In short: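 Parental Ba/F3 cells (100,000 cells/ml) were treated with 10-point, 4-fold compound dilutions (0.5% DMSO; top stock 2 mM) for 72 h at 37 °C, 5% CO2. Viability was read by CellTiter-Glo; GI50 is the concentration (μM) giving 50% growth inhibition.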
# [3] = tested on: Ba/F3 cells expressing EGFR-wt; experiment: Growth inhibition (GI50) of Ba/F3 cells expressing EGFR-wt, Celltiter glo
# In short: as §1
# [4] = tested on: Ba/F3 cells expressing L858R/T790M/C797S (EGFR-LTC); experiment: Growth inhibition (GI50) of Ba/F3 cells expressing L858R/T790M/C797S (EGFR-LTC), Celltiter glo
# In short: as §1
# [5] = tested on: Ba/F3 cells expressing del19/T790M/C797S (EGFR-DTC); experiment: Growth inhibition (GI50) of Ba/F3 cells expressing del19/T790M/C797S (EGFR-DTC), Celltiter glo
# In short: as §1
# [6] = tested on: Ba/F3 cells expressing del19/T790M (EGFR-DT); experiment: Growth inhibition (GI50) of Ba/F3 cells expressing del19/T790M (EGFR-DT), Celltiter glo
# In short: as §1
SMILES,"GI50 ([1]; Mus musculus, BaF3, 72 h) [nM]","GI50 ([2]; Mus musculus, BaF3, 72 h) [nM]","GI50 ([3]; Mus musculus, BaF3, 72 h) [nM]","GI50 ([4]; Mus musculus, BaF3, 72 h) [nM]","GI50 ([5]; Mus musculus, BaF3, 72 h) [nM]","GI50 ([6]; Mus musculus, BaF3, 72 h) [nM]",GI50 ([1]; 72 h) [nM],GI50 ([2]; 72 h) [nM],GI50 ([3]; 72 h) [nM],GI50 ([4]; 72 h) [nM],GI50 ([5]; 72 h) [nM],GI50 ([6]; 72 h) [nM]
"COc1cc(N2CCC(N3CCN(C)CC3)CC2)c(Br)cc1Nc1ncc(Cl)c(Nc2cc3c(cc2NS(C)(=O)=O)CCO3)n1 [Example 270, N-(6-((2-((5-Bromo-2-methoxy-4-(4-(4-methylpiperazin-1-yl)piperidin-1-yl)phenyl)amino)-5-chloropyrimidin-4-yl)amino)-2,3-dihydrobenzofuran-5-yl)methanesulfonamide]",1 to 25,500 to 2000,500 to 2000,1 to 25,1 to 25,1 to 25,–,–,–,–,–,–
"COc1cc(N2CCC(N3CCN(C)CC3)CC2)c(Br)cc1Nc1ncc(Br)c(Nc2cc3c(cc2NS(C)(=O)=O)CCO3)n1 [Example 271, N-(6-((2-((5-bromo-2-methoxy-4-(4-(4-methylpiperazin-1-yl)piperidin-1-yl)phenyl)amino)-5-bromopyrimidin-4-yl)amino)-2,3-dihydrobenzofuran-5-yl)methanesulfonamide]",1 to 25,2000 to 10000,2000 to 10000,1 to 25,1 to 25,1 to 25,–,–,–,–,–,–
COc1cc(N2CCC(N3CCN(C)CC3)CC2)c(C)cc1Nc1ncc(Cl)c(Nc2ccc3c(c2)N(C)CC3)n1 [Example 272],500 to 2000,2000 to 10000,2000 to 10000,500 to 2000,500 to 2000,500 to 2000,–,–,–,–,–,–
COc1cc(N2CCC(N3CCN(C)CC3)CC2)c(Cl)cc1Nc1ncc(Cl)c(Nc2ccc3c(c2)N(C)CC3)n1 [Example 273],100 to 500,500 to 2000,25 to 100,100 to 500,500 to 2000,500 to 2000,–,–,–,–,–,–
Cc1cc(Nc2ncc(Cl)c(Nc3ccc4c(c3)N(C)CC4)n2)c(Cl)cc1N1CCC(N2CCN(C)CC2)CC1 [Example 274],500 to 2000,500 to 2000,25 to 100,500 to 2000,2000 to 10000,500 to 2000,–,–,–,–,–,–
COc1cc(N2CCC(N3CCCN(C)CC3)CC2)c(C)cc1Nc1ncc(Cl)c(Nc2ccc3c(c2)N(C)CC3)n1 [Example 275],500 to 2000,500 to 2000,100 to 500,500 to 2000,500 to 2000,100 to 500,–,–,–,–,–,–
"COc1cc(N2CCC(N3CCN(C)CC3)CC2)c(C)cc1Nc1ncc(Cl)c(Nc2cc3c(cc2NS(C)(=O)=O)CCN3C)n1 [Example 276, N-(6-((5-chloro-2-((2-methoxy-5-methyl-4-(4-(4-methylpiperazin-1-yl)piperidin-1-yl)phenyl)amino)pyrimidin-4-yl)amino)-1-methylindolin-5-yl)methanesulfonamide]",100 to 500,2000 to 10000,500 to 2000,100 to 500,100 to 500,25 to 100,–,–,–,–,–,–
Cc1cc(Nc2ncc(Cl)c(Nc3ccc4c(c3)NCC4)n2)c(Cl)cc1N1CCC(N2CCN(C)CC2)CC1 [Example 277],2000 to 10000,2000 to 10000,> 10000,> 10000,> 10000,2000 to 10000,–,–,–,–,–,–
COc1cc(N2CCC(N3CCN(C)CC3)CC2)c(Cl)cc1Nc1ncc(Cl)c(Nc2ccc3c(c2)NCC3)n1 [Example 278],2000 to 10000,2000 to 10000,> 10000,> 10000,2000 to 10000,> 10000,–,–,–,–,–,–
COc1cc(N2CCC(N3CCN(C)CC3)CC2)ccc1Nc1ncc(Cl)c(Nc2ccc3c(c2)NCC3)n1 [Example 279],500 to 2000,2000 to 10000,2000 to 10000,2000 to 10000,2000 to 10000,100 to 500,–,–,–,–,–,–
"COc1cc(N2CCC(N3CCCC(N(C)C)C3)CC2)c(Br)cc1Nc1ncc(Cl)c(Nc2cc3c(cc2NS(C)(=O)=O)CCO3)n1 (stereo not drawn) [Example 280, N-(6-((2-((5-bromo-4-(3-(dimethylamino)-[1,4′-bipiperidin]-1′-yl)-2-methoxyphenyl)amino)-5-chloropyrimidin-4-yl)amino)-2,3-dihydrobenzofuran-5-yl)methanesulfonamide]",1 to 25,2000 to 10000,25 to 100,1 to 25,100 to 500,1 to 25,–,–,–,–,–,–
"COc1cc(N2CCC(N3CCCC(N(C)C)C3)CC2)c(Br)cc1Nc1ncc(Br)c(Nc2cc3c(cc2NS(C)(=O)=O)CCO3)n1 (stereo not drawn) [Example 281, N-(6-((5-bromo-2-((5-bromo-4-(3-(dimethylamino)-[1,4′-bipiperidin]-1′-yl)-2-methoxyphenyl)amino)pyrimidin-4-yl)amino)-2,3-dihydrobenzofuran-5-yl)methanesulfonamide]",1 to 25,100 to 500,100 to 500,1 to 25,25 to 100,1 to 25,–,–,–,–,–,–
"COc1cc(N2CCC(N3CCCN(C)CC3)CC2)c(Br)cc1Nc1ncc(Cl)c(Nc2cc3c(cc2NS(C)(=O)=O)CCO3)n1 [Example 282, N-(6-((2-((5-bromo-2-methoxy-4-(4-(4-methyl-1,4-diazepan-1-yl)piperidin-1-yl)phenyl)amino)-5-chloropyrimidin-4-yl)amino)-2,3-dihydrobenzofuran-5-yl)methanesulfonamide]",1 to 25,2000 to 10000,100 to 500,25 to 100,100 to 500,1 to 25,–,–,–,–,–,–
"COc1cc(N2CCC(N3CCC(N(C)C)C3)CC2)c(Br)cc1Nc1ncc(Cl)c(Nc2cc3c(cc2NS(C)(=O)=O)CCO3)n1 (stereo not drawn) [Example 283, N-(6-((2-((5-bromo-4-(4-(3-(dimethylamino)pyrrolidin-1-yl)piperidin-1-yl)-2-methoxyphenyl)amino)-5-chloropyrimidin-4-yl)amino)-2,3-dihydrobenzofuran-5-yl)methanesulfonamide]",1 to 25,2000 to 10000,100 to 500,25 to 100,100 to 500,1 to 25,–,–,–,–,–,–
COc1cc(N2CCC(N3CCN(C)CC3)CC2)c(C)cc1Nc1ncc(Br)c(Nc2ccc3nccnc3c2P(C)(C)=O)n1 [TQB-3804],–,–,–,–,–,–,100 to 500,500 to 2000,500 to 2000,25 to 100,25 to 100,100 to 500

# Reference: patent US20240228458A1, “PYRIMIDINE DERIVATIVE HAVING PROTEIN KINASE INHIBITORY ACTIVITY, AND THERAPEUTIC PHARMACEUTICAL COMPOSITION COMPRISING SAME” (THERAPEX CO., LTD., priority 2021, published 2024)
